Data published in PubChem BioAssay AID624286 (Southern Research Specialized Biocontainment Screening …, 2012).
Activity calls are given as the source filed them. How the calls were made is not given here.

System: VEEV TC-83 infected cells, virus titer reduction
Test: secondary cell-based VEEV TC-83 titer reduction, set 3 of VEEV inhibitor project (AID 624286)
Settings: at 5 µM; hits give low values

`O=c1c2cc([N+](=O)[O-])ccc2nc(CN2CCNCC2)n1-c1ccccc1F` and `O=c1c2cc([N+](=O)[O-])ccc2nc(CN2CCNCC2)n1-c1ccccc1` cannot be ordered by log virus titer change: under -7.76 for the first, under -7.76 for the second.

Compared with `CCN1CCN(Cc2nc3ccc([N+](=O)[O-])cc3c(=O)n2-c2cccc(F)c2)CC1`, `CCN1CCN(Cc2nc3ccc([N+](=O)[O-])cc3c(=O)n2-c2ccc(F)cc2)CC1` is higher in log virus titer change: under -7.11 for the first, -5.88 for the second.

`CCN1CCN(Cc2nc3ccc([N+](=O)[O-])cc3c(=O)n2-c2ccccc2)CC1` and `CN1CCN(Cc2nc3ccc([N+](=O)[O-])cc3c(=O)n2-c2ccccc2F)CC1` cannot be ordered by log virus titer change: under -7.54 for the first, under -7.76 for the second.

In the case of `O=c1c2cc([N+](=O)[O-])ccc2nc(CN2CCCCC2)n1-c1ccccc1F`, the log virus titer change is reported as -0.366 (inactive).
With `CCN1CCN(Cc2nc3ccc(I)cc3c(=O)n2-c2ccccc2)CC1` the log virus titer change was -0.33 (inactive).
